{
  "source": "patent US9816989B2",
  "about": "“Immunologically active polypeptide” (Institute of Arthritis Research, LLC, priority 2013, dated 2017)",
  "key": {"E. coli": {"test_system": "E. coli", "assay": "E. coli growth (CFUs) incubated with human peripheral blood leukocytes with and without PeptideX2", "assay_type": "cell-based", "conditions": "E. coli with WBCs and PeptideX2; 10 hours; FIG. 11", "method": "To test this hypothesis, human peripheral white cells were incubated with E. coli in the presence and absence of PeptideX2.\nHuman peripheral blood leukocytes (WBCs) were obtained from healthy donors with informed consent. Three test groups were inoculated with E. coli and incubated for 10 hours. The three groups were E. coli with serum alone, E. coli with WBCs, and E. coli with WBCs with PeptideX2. Samples were taken at 0, 2, 4, 6 and 10 hours and plated for colony forming units (CFUs). […] In a separate but similar experiment, nine test groups (E. coli with serum alone, E. coli with WBCs, and E. coli with WBCs with PeptideX2 at each of seven indicated concentrations, see FIG. 12) were incubated over a time course of three hours, with quantification of bacterial CFU performed at times 0, 1.5 and 3 hours (FIG. 12)."}, "[1]": {"test_system": "macrophage cell line (THP-1)", "assay": "Flow cytometry binding to macrophage/monocyte cell line with or without LPS", "conditions": "presence or absence of LPS"}, "peripheral blood cells": {"test_system": "peripheral blood cells", "assay": "Cytokine production by human peripheral blood cells in culture (MSD panel)", "assay_type": "cell-based", "method": "In order to examine the biological activity of IgX, cytokine production from human peripheral whole blood samples incubated with IgX was measured. Peripheral whole blood samples from three different donors (#66, 67, and 85) were obtained with appropriate informed consent and incubated with concentrations of IgX ranging from 0 to 200 ug/ml.\nProtein A purified IgX was prepared from placental sample BC, brought to 0.05 M phosphate, 0.15 M NaCl buffer, pH 7.4, treated with an endotoxin affinity column (ActiClean Etox™ from Sterogene, Carlsbad, Calif.) according to the supplier's instructions, and then sent to IBT Bioservices (Gaithersburg, Md.) for human peripheral blood testing. […] All peripheral blood cells were suspended in RPMI-1640 media. Various concentrations of IgX were incubated with peripheral blood cells from donor D66 for 18 hours, and then the samples were stimulated with 1 ug/ml of PHA, 50 ng/ml of LPS, or 10 ng/ml of IFNγ (200 U/ml) for four hours. Samples of culture supernatant fluids were tested in duplicate for the presence of IL-2, IL-4, IL-6, IL-10, IL-12, and TNFα using a Meso Scale Discovery (MSD, Gaithersburg, Md.) panel.\nPeptideX1 and PeptideX2 were incubated with peripheral blood cells from donor D67 as described above and tested in duplicate for IL-6 activity. […]"}},
  "data": [
    {"sequence": "KSIAYLQMNSLK (Peptide fragment) [PeptideX2]", "values": [
      {"measurement": "E. coli CFUs", "setting": "E. coli", "value": "rapid rise in CFUs"},
      {"measurement": "binding to monocyte cell line", "setting": "[1]", "value": "without any binding"},
      {"measurement": "IL-6 production compared to peptideX1", "setting": "peripheral blood cells; cells from donor #67, FIG. 7", "value": "significantly greater"},
      {"measurement": "IL-6 production", "setting": "peripheral blood cells; cells from donor #85, PeptideX2 0-200 ug/ml, FIG. 9", "value": "enhanced production"}
    ]}
  ]
}
